From patent US7220576B2, “Methods and compositions for protein expression and purification” (Lifesensors, Inc., priority 2002, dated 2007)
“And” between values parts separate entries of the source, which are not always exact repeats. Equal entries are not always repeated. “Also recorded” adds a separate entry of the source. Each block holds one molecule with its values, some of them ahead of it. Non-standard residues stand in square brackets, D forms with d. Residues, ends and D or L forms follow the SMILES beside them. *: point of attachment. Sta = CC(C)C[C@H](N)[C@@H](O)CC(=O)O; Isovaleryl = CC(C)CC(=O)*

What was measured:
Ulp1 Hydrolase = target: T1, Ulp1 Hydrolase (Saccharomyces cerevisiae, UniProt Q02724); experiment: In vitro Ulp1 cleavage of His6SUMO-GFP under various additives/conditions; type: biochemical, yeast; settings: for Ulp1 activity remaining: 0.5 M Gdm HCl, hydrochloride
T1 construct: C-terminal His-tagged SUMO hydrolase/protease Ulp (403–621)p (21) (27) was expressed from pET24d; His tag (C); made in house; host or cells: E. coli Rosetta (DE3) pLysS, vector pET24d
T1 sequence (Q02724 403-621): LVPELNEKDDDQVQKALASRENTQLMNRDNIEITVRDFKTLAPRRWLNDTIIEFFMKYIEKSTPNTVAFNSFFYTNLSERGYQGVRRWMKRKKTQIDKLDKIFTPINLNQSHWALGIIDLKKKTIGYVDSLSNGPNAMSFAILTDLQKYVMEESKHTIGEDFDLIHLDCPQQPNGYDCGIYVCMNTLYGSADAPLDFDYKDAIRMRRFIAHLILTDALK
Experimental: Ni-NTA purified His6SUMO-GFP was incubated with Ulp1 under the indicated conditions for one hour at room temperature unless indicated otherwise. Low molecular weight markers (LMW) are also provided.
Ni-NTA purified His6SUMO-GFP was incubated with Ulp1 and 10 mM of various protease inhibitors for 1 hour at room temperature. Lane markers: Norm is addition of Ulp1 and N-ethymaleimide (NEM) to the substrate at the same time, Pre is the incubation of Ulp1 with NEM prior to the addition of substrate, +Ve is the absence of any inhibitor, −Ve is in the absence of Ulp1, lane 1 is with E-64, lane 2 is with EDTA, lane 3 is with leupeptin, lane 4 is with NEM, lane 5 is with pepstatin, lane 6 is with TLCK. Low molecular weight markers (LMW) are also provided.
The effects of various additives/conditions and temperature upon the in vitro cleavage reaction were determined as follows: His6smt3MeGFP was expressed from pET24d in Rosetta (DE3) pLysS (Novagen). The recombinant protein was purified as before using Ni-NTA agarose (Qiagen) and then buffer exchanged into 20 mM Tris-HCl pH 8.0, 150 mM NaCl and 5 mM β-mercaptoethanol using a PD-10 column (AP Biotech). Cleavage reactions were performed with 100 ug of the purified protein, 0.5 ul of enzyme, the appropriate amount of a stock solution of additive to generate the final concentrations listed in Table 4, plus the exchange buffer up to a final volume of 200 ul. Reactions were incubated for 1 hour at 37° C. except for those at 4° C. were incubated for 3 hours. […] Generally, His tagged proteins are purified on nickel columns and eluted with imidazole.

SUMO hydrolase Ulp1 = target: T2, SUMO hydrolase Ulp1 (Saccharomyces cerevisiae, UniProt Q02724); experiment: In vitro cleavage of purified SUMO fusion proteins by SUMO hydrolase Ulp1; type: biochemical, yeast
T2 construct: C-terminal His-tagged SUMO hydrolase/protease Ulp (403–621)p (21) (27) was expressed from pET24d; His tag (C); made in house; host or cells: E. coli Rosetta (DE3) pLysS, vector pET24d
T2 sequence (Q02724 403-621): T1 sequence (Q02724 403-621)

E. coli [1] = experiment: Soluble versus insoluble fraction of fusion proteins expressed in E. coli; type: cell-based
Experimental: E. coli were harvested by mild centrifugation and washed once with PBS buffer. Cells were resuspended in 4 ml of PBS and ruptured by several pulses of sonication. Unbroken cells were removed by mild centrifugation (5 min at 1500×g) and supernatants were sonicated again to ensure complete cell lysis. An aliquot (5 μl) was mixed with 2% SDS to ensure that no viscosity is detected owing to lysis of unbroken cells. After ensuring that no unbroken cells remained in the lysate, insoluble material consisting of cell walls, inclusion bodies and membrane fragments was sedimented by centrifugation (18,000×g for 10 min). The supernatant was considered “Soluble fraction”.
The pellets were washed from any remaining soluble proteins, lipids and peptidoglycan as follows. Pellets were resuspended in 600 μl of PBS and to the suspensions 600 μl of solution containing 3 M urea and 1% Tri ton X100 was added. The suspension was briefly vortexed and insoluble material was collected by centrifugation as above. […]
Human nuclear receptor proteins, such as steroid receptors, contain ligand-binding domains. […] The ligand-binding domain of LXR was expressed as SUMO fusion in Rosetta plysS cell at 20° C. or 37° C. and the pattern of soluble and insoluble protein was analyzed. […] The original induced culture (I), supernatant from lysed cells (S) and resuspended pellet (P) were analyzed on 12% SDS-PAGE. […]

E. coli [2] = experiment: GFP fluorescence in soluble fractions of E. coli; type: cell-based; settings: 37° C., approx. 0.1 mg soluble protein, Ex 485 nm/Em 510 nm
Experimental: GFP fluorescence was measured in soluble fractions (approx. 0.1 mg of soluble protein in a final volume of 40 μl) using Fluoroscan Accent FL fluorometer (LabSystems) with Excitation 485 nm/Emission 510 nm filter set with the exposure set to 40 sec. The data are presented in Arbitrary Units (AU).
The design and construction of all the UBL E. coli expression vectors has been described above. The DNA sequences, accession numbers of the UBL-GFP fusion proteins, and translation frames are shown FIGS. 25–32. […] Un-fused GFP is generally poorly expressed in E. coli. […] Induced cells were broken by sonication and soluble proteins were analyzed on SDS-polyacrylamide gels. […] To determine if the fusion proteins were folded correctly, we determined the fluorescence properties of proteins in the soluble fraction.

[3] = protease inhibitors, 10 mM per FIG. 17 legend

Molecule: CC(=O)N[C@@H](CC(C)C)C(=O)N[C@@H](CC(C)C)C(=O)N[C@H](C=O)CCCNC(=N)N [Leupeptin]
- Effect of protease inhibitor on Ulp1 hydrolase activity (Ulp1 Hydrolase; [3]): no effect; also recorded: like specificity; no affect

- Effect on Ulp1 hydrolase activity (Ulp1 Hydrolase; imidazole 0 to 300 mM, listed as imidazole): remarkably active
Molecule: c1c[nH]cn1 [Imidazole]
- Effect on Ulp1 hydrolase activity (Ulp1 Hydrolase; imidazole 0 to 300 mM): Ulp1 shows similar activity in the range of

Molecule: O=C(O)CN(CCN(CC(=O)O)CC(=O)O)CC(=O)O [EDTA]
- Effect of protease inhibitor on Ulp1 hydrolase activity (Ulp1 Hydrolase; [3]): no effect; also recorded: Metalloprotease inhibitor; no affect

- Ulp1 activity remaining (Ulp1 Hydrolase; listed as guanadinium hydrochloride): 50%
- Effect on Ulp1 hydrolase activity (Ulp1 Hydrolase; 1 M Gdm HCl): inactive in 1 M concentrations
Molecule: Cl.N=C(N)N [Gdm HCl, guanadinium hydrochloride]
- Ulp1 activity remaining (Ulp1 Hydrolase): Ulp1 shows 50% activity in 0.5 M but is completely

Molecule: Cc1ccc(S(=O)(=O)N[C@@H](CCCCN)C(=O)CCl)cc1.Cl [TLCK-HCl]
- Effect of protease inhibitor on Ulp1 hydrolase activity (Ulp1 Hydrolase; [3]): chymotrypsin-like specificity; no affect
- Effect of protease inhibitor on Ulp1 hydrolase activity (Ulp1 Hydrolase; protease inhibitors, 10 mM per FIG. 17 legend, listed as TLCK): no effect

Molecule: O=S(=O)(F)Cc1ccccc1 [PMSF]
- Effect of protease inhibitor on Ulp1 hydrolase activity (Ulp1 Hydrolase; [3]): no effect; also recorded: Serine protease inhibitor; no affect

- Share of protein cleaved by SUMO hydrolase (SUMO hydrolase Ulp1; 20 minutes, room temperature): 100%
Molecule: SUMO-β-galactosidase: SUMO fusion of E. coli β-galactosidase, a 110 KDa protein (SEQ ID NO: 31)

Molecule: NC(N)=O [Urea]
- Effect on Ulp1 hydrolase activity (Ulp1 Hydrolase; urea up to and including 2 M, listed as urea): did not effect the activity; also recorded: does not inhibit the hydrolase

- Effect on Ulp1 hydrolase activity (Ulp1 Hydrolase; up to 1% triton X 100): highly active
Molecule: Triton-X

- Effect of protease inhibitor on Ulp1 hydrolase activity (Ulp1 Hydrolase; [3]): Cysteine protease inhibitor; no affect
Molecule: CC(C)C[C@H](NC(=O)[C@H]1O[C@@H]1C(=O)O)C(=O)NCCCCN=C(N)N [E-64]

- Effect of protease inhibitor on Ulp1 hydrolase activity (Ulp1 Hydrolase; enzyme preincubated with inhibitor before addition of substrate, listed as N-ethymaleimide): active
Molecule: CCN1C(=O)C=CC1=O [N-ethylmaleimide]

Molecule: CCCCCCCCCCCCOS(=O)(=O)[O-].[Na+] [SDS]
- Effect on Ulp1 hydrolase activity (Ulp1 Hydrolase; 0.01% SDS): highly active and 0.01% SDS blocks activity

Molecule: CC(C)CC(=O)N[C@H](C(=O)N[C@H](C(=O)N[C@@H](CC(C)C)[C@@H](O)CC(=O)N[C@@H](C)C(=O)N[C@@H](CC(C)C)[C@@H](O)CC(=O)O)C(C)C)C(C)C [Pepstatin] (Isovaleryl-VV[Sta]A[Sta]-OH)
- Effect of protease inhibitor on Ulp1 hydrolase activity (Ulp1 Hydrolase; [3]): no effect; also recorded: Aspartate protease inhibitor; no affect

Molecule: SUMO-GFP: SUMO fused to N-terminus of GFP (SEQ ID NO: 5)
- In vitro cleavage by Ulp1 / SUMO hydrolase (SUMO hydrolase Ulp1; purified fusion protein from E. coli): completely digested
- Solubility of UBL-GFP fusion (soluble panel of stained gel) (E. coli [1]; 26° C. overnight, FIG. 4B): able to solubilize fused GFP
- Solubility of UBL-GFP fusion (soluble panel of stained gel) (E. coli [1]; 37° C., FIG. 4A): able to solublize the GFP
- GFP fluorescence of soluble fraction (correct folding) (E. coli [2]): able to fluoresce
